# In patent US9708314B2, “Heterocyclic amide compound” (NISSAN CHEMICAL INDUSTRIES, LTD., priority 2013, dated 2017):
# What was measured:
# Type in all cases: in vivo
# [1] = test system: Cyperus difformis; assay: Test Example 3: herbicidal effect by application to foliage (Wagner pot, water depth 0.1-0.5 cm); conditions: Nineteenth Table; application to foliage; application herbicide amount 320 g/ha
# Outline: (§1)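 Seeds were sown in alluvial soil in Wagner pots, grown for 14 days at 25–30 °C, then sprayed uniformly on foliage with the emulsified compound diluted to a given rate per hectare. Injury was graded three weeks after treatment from 0 (≤5%) to 5 (≥90%).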
# [2] = test system: Echinochloa crus-galli var. crus-galli; assay: as above; conditions: Nineteenth Table; application to foliage; application herbicide amount 320 g/ha
# Outline: as §1
# [3] = test system: Leptochloa chinensis; assay: as above; conditions: Nineteenth Table; application to foliage; application herbicide amount 320 g/ha
# Outline: as §1
# [4] = test system: Abutilon theophrasti; assay: Test Example 4: herbicidal effect by application to foliage (diluvial soil, plastic box)
# Outline: (§2)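 Scores run from 0 (herbicidal ratio ≤5%) to 5 (≥90%, almost fully withered) and were assessed three weeks after foliar spraying. Seedlings had been raised for 14 days at 25-30° C in sterilized diluvial soil before treatment, with the emulsion diluted in water to the stated g/ha dose.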
# [5] = test system: Alopecurus myosuroides; assay: as above
# Outline: as §2
# [6] = test system: Amaranthus retroflexus; assay: as above
# Outline: as §2
# [7] = test system: Apera spica-venti.; assay: as above
# Outline: as §2
# [8] = test system: Avena fatua; assay: as above
# Outline: as §2
# [9] = test system: Chenopodium album; assay: as above
# Outline: as §2
# [10] = test system: Digitaria ciliaris; assay: as above
# Outline: as §2
# [11] = test system: Echinochloa crus-galli var. crus-galli; assay: as above
# Outline: as §2
# [12] = test system: Galium spurium; assay: as above
# Outline: as §2
# [13] = test system: Lolium multiflorum Lam.; assay: as above
# Outline: as §2
# [14] = test system: Setaria viridis; assay: as above
# Outline: as §2
# [15] = test system: Stellaria media; assay: as above
# Outline: as §2
# [16] = test system: Veronica persica; assay: as above
# Outline: as §2
# [17] = test system: Beta vulgaris ssp. vulgaris; assay: Test Example 4: effect on crop by application to foliage (diluvial soil, plastic box)
# Outline: as §2
# [18] = test system: Brassica campestris L.; assay: as above
# Outline: as §2
# [19] = test system: Glycine max; assay: as above
# Outline: as §2
# [20] = test system: Triticum aestivum; assay: as above
# Outline: as §2
# [21] = test system: Zea mays; assay: as above
# Outline: as §2
# [22] = test system: directly sowed Oryza sativa; assay: as above
# Outline: as §2
# [23] = application to foliage, application herbicide amount 320 g/ha
# [24] = application to foliage, 320 g/ha
smiles,measurement,setting,value
Cc1nnc(NC(=O)c2ccc(C(F)(F)F)n3c(SCc4ccc(Cl)nc4)nnc23)o1 [1-156],E (herbicidal effect grade),[1],2 (Herbicidal ratio of 20% or more and less than 40%)
same,H (herbicidal effect grade),[2],3 (Herbicidal ratio of 40% or more and less than 70%)
same,D (herbicidal effect grade),[3],2 (Herbicidal ratio of 20% or more and less than 40%)
same,M: herbicidal effect on Abutilon theophrasti,[4]; [23],3 (Herbicidal ratio of 40% or more and less than 70%)
same,J: herbicidal effect on Alopecurus myosuroides,[5]; [23],1 (Herbicidal ratio of 5% or more and less than 20%)
same,N: herbicidal effect on Amaranthus retroflexus,[6]; [23],3 (Herbicidal ratio of 40% or more and less than 70%)
same,L: herbicidal effect on Apera spica-venti.,[7]; [23],2 (Herbicidal ratio of 20% or more and less than 40%)
same,I: herbicidal effect on Avena fatua,[8]; [23],1 (Herbicidal ratio of 5% or more and less than 20%)
same,O: herbicidal effect on Chenopodium album,[9]; [23],5 (Herbicidal ratio of 90% or more (almost completely withered))
same,F: herbicidal effect on Digitaria ciliaris,[10]; [23],2 (Herbicidal ratio of 20% or more and less than 40%)
same,H: herbicidal effect on Echinochloa crus-galli var. crus-galli,[11]; [23],4 (Herbicidal ratio of 70% or more and less than 90%)
same,Q: herbicidal effect on Galium spurium,[12]; [23],1 (Herbicidal ratio of 5% or more and less than 20%)
same,K: herbicidal effect on Lolium multiflorum Lam.,[13]; [23],1 (Herbicidal ratio of 5% or more and less than 20%)
same,G: herbicidal effect on Setaria viridis,[14]; [23],1 (Herbicidal ratio of 5% or more and less than 20%)
same,P: herbicidal effect on Stellaria media,[15]; [23],4 (Herbicidal ratio of 70% or more and less than 90%)
same,R: herbicidal effect on Veronica persica,[16]; [23],3 (Herbicidal ratio of 40% or more and less than 70%)
same,"f: effect on crop, Beta vulgaris ssp. vulgaris",[17]; [23],3 (Herbicidal ratio of 40% or more and less than 70%)
same,"g: effect on crop, Brassica campestris L.",[18]; [23],0 (Herbicidal ratio of 5% or less (almost no effect))
same,"d: effect on crop, Glycine max",[19]; [23],3 (Herbicidal ratio of 40% or more and less than 70%)
same,"e: effect on crop, Triticum aestivum",[20]; [23],1 (Herbicidal ratio of 5% or more and less than 20%)
same,"c: effect on crop, Zea mays",[21]; [23],0 (Herbicidal ratio of 5% or less (almost no effect))
same,"b: effect on crop, directly sowed Oryza sativa",[22]; [23],0 (Herbicidal ratio of 5% or less (almost no effect))
CCC(C)Sc1nnc2c(C(=O)Nc3nnnn3C)ccc(C(F)(F)F)n12 (stereo not drawn) [2-072],E (herbicidal effect grade),[1],5 (Herbicidal ratio of 90% or more (almost completely withered))
same,H (herbicidal effect grade),[2],4 (Herbicidal ratio of 70% or more and less than 90%)
same,D (herbicidal effect grade),[3],5 (Herbicidal ratio of 90% or more (almost completely withered))
same,M (Abutilon theophrasti) herbicidal effect grade,"[4]; foliage application, 320 g/ha",5 (Herbicidal ratio of 90% or more (almost completely withered))
same,J (Alopecurus myosuroides) herbicidal effect grade,"[5]; foliage application, 320 g/ha",1 (Herbicidal ratio of 5% or more and less than 20%)
same,N (Amaranthus retroflexus) herbicidal effect grade,"[6]; foliage application, 320 g/ha",5 (Herbicidal ratio of 90% or more (almost completely withered))
same,L (Apera spica-venti.) herbicidal effect grade,"[7]; foliage application, 320 g/ha",3 (Herbicidal ratio of 40% or more and less than 70%)
same,I (Avena fatua) herbicidal effect grade,"[8]; foliage application, 320 g/ha",1 (Herbicidal ratio of 5% or more and less than 20%)
same,O (Chenopodium album) herbicidal effect grade,"[9]; foliage application, 320 g/ha",5 (Herbicidal ratio of 90% or more (almost completely withered))
same,F (Digitaria ciliaris) herbicidal effect grade,"[10]; foliage application, 320 g/ha",5 (Herbicidal ratio of 90% or more (almost completely withered))
same,H (Echinochloa crus-galli var. crus-galli) herbicidal effect grade,"[11]; foliage application, 320 g/ha",5 (Herbicidal ratio of 90% or more (almost completely withered))
same,Q (Galium spurium) herbicidal effect grade,"[12]; foliage application, 320 g/ha",3 (Herbicidal ratio of 40% or more and less than 70%)
same,K (Lolium multiflorum Lam.) herbicidal effect grade,"[13]; foliage application, 320 g/ha",1 (Herbicidal ratio of 5% or more and less than 20%)
same,G (Setaria viridis) herbicidal effect grade,"[14]; foliage application, 320 g/ha",5 (Herbicidal ratio of 90% or more (almost completely withered))
same,P (Stellaria media) herbicidal effect grade,"[15]; foliage application, 320 g/ha",5 (Herbicidal ratio of 90% or more (almost completely withered))
same,R (Veronica persica) herbicidal effect grade,"[16]; foliage application, 320 g/ha",5 (Herbicidal ratio of 90% or more (almost completely withered))
same,f (Beta vulgaris ssp. vulgaris) effect on crop grade,"[17]; foliage application, 320 g/ha",5 (Herbicidal ratio of 90% or more (almost completely withered))
same,g (Brassica campestris L.) effect on crop grade,"[18]; foliage application, 320 g/ha",4 (Herbicidal ratio of 70% or more and less than 90%)
same,c (Glycine max) effect on crop grade,"[19]; foliage application, 320 g/ha",3 (Herbicidal ratio of 40% or more and less than 70%)
same,e (Triticum aestivum) effect on crop grade,"[20]; foliage application, 320 g/ha",1 (Herbicidal ratio of 5% or more and less than 20%)
same,b (Zea mays) effect on crop grade,"[21]; foliage application, 320 g/ha",1 (Herbicidal ratio of 5% or more and less than 20%)
same,d (directly sowed Oryza sativa) effect on crop grade,"[22]; foliage application, 320 g/ha",4 (Herbicidal ratio of 70% or more and less than 90%)
C=CCn1nnnc1NC(=O)c1ccc(C(F)(F)F)n2c(C(C)C)nnc12 [2-091],E (herbicidal effect grade),[1],4 (Herbicidal ratio of 70% or more and less than 90%)
same,H (herbicidal effect grade),[2],5 (Herbicidal ratio of 90% or more (almost completely withered))
same,D (herbicidal effect grade),[3],3 (Herbicidal ratio of 40% or more and less than 70%)
same,"herbicidal effect, M (Abutilon theophrasti)",[4]; [24],4 (Herbicidal ratio of 70% or more and less than 90%)
same,"herbicidal effect, J (Alopecurus myosuroides)",[5]; [24],2 (Herbicidal ratio of 20% or more and less than 40%)
same,"herbicidal effect, N (Amaranthus retroflexus)",[6]; [24],4 (Herbicidal ratio of 70% or more and less than 90%)
same,"herbicidal effect, L (Apera spica-venti.)",[7]; [24],3 (Herbicidal ratio of 40% or more and less than 70%)
same,"herbicidal effect, I (Avena fatua)",[8]; [24],3 (Herbicidal ratio of 40% or more and less than 70%)
same,"herbicidal effect, O (Chenopodium album)",[9]; [24],5 (Herbicidal ratio of 90% or more (almost completely withered))
same,"herbicidal effect, F (Digitaria ciliaris)",[10]; [24],5 (Herbicidal ratio of 90% or more (almost completely withered))
same,"herbicidal effect, H (Echinochloa crus-galli var. crus-galli)",[11]; [24],5 (Herbicidal ratio of 90% or more (almost completely withered))
same,"herbicidal effect, Q (Galium spurium)",[12]; [24],4 (Herbicidal ratio of 70% or more and less than 90%)
same,"herbicidal effect, K (Lolium multiflorum Lam.)",[13]; [24],3 (Herbicidal ratio of 40% or more and less than 70%)
same,"herbicidal effect, G (Setaria viridis)",[14]; [24],5 (Herbicidal ratio of 90% or more (almost completely withered))
same,"herbicidal effect, P (Stellaria media)",[15]; [24],5 (Herbicidal ratio of 90% or more (almost completely withered))
same,"herbicidal effect, R (Veronica persica)",[16]; [24],4 (Herbicidal ratio of 70% or more and less than 90%)
same,"effect on crop, f (Beta vulgaris ssp. vulgaris)",[17]; [24],5 (Herbicidal ratio of 90% or more (almost completely withered))
same,"effect on crop, g (Brassica campestris L.)",[18]; [24],5 (Herbicidal ratio of 90% or more (almost completely withered))
same,"effect on crop, c (Glycine max)",[19]; [24],0 (Herbicidal ratio of 5% or less (almost no effect))
same,"effect on crop, e (Triticum aestivum)",[20]; [24],3 (Herbicidal ratio of 40% or more and less than 70%)
same,"effect on crop, b (Zea mays)",[21]; [24],2 (Herbicidal ratio of 20% or more and less than 40%)
same,"effect on crop, d (directly sowed Oryza sativa)",[22]; [24],3 (Herbicidal ratio of 40% or more and less than 70%)
